Source: US10206937B2, “Boronic acid derivatives and therapeutic uses thereof” (Qpex Biopharma, Inc., priority 2014, dated 2019)

Tested on: strains of Enterobacteriaceae producing various carbapenemases (class A, D and B; 104 strains)
Assay: Antibiotics potentiation by Compound 27 (MIC; meropenem, doripenem, ertapenem, cefepime)
Format: cell-based
Conditions: + 27 = with Compound 27 at fixed 4 μg/ml

## C[C@@H](O)[C@H]1C(=O)N2C(C(=O)O)=C(S[C@@H]3CN[C@H](C(=O)Nc4cccc(C(=O)O)c4)C3)[C@H](C)[C@H]12 [E]
Strain KP1081 Klebsiella pneumoniae (NDM-1, TEM-1, SHV-11, CMY-6, CTX-M-15)
  MIC: Z (MIC of greater than 10 μg/mL)
Strain KP1082 Klebsiella pneumoniae (KPC-2, SHV-1)
  MIC: Z (MIC of greater than 10 μg/mL)
Strain KP1083 Klebsiella pneumoniae (KPC-3, SHV-1, TEM-1)
  MIC: Z (MIC of greater than 10 μg/mL)
Strain KP1084 Klebsiella pneumoniae (KPC-3, SHV-11, TEM-1)
  MIC: Z (MIC of greater than 10 μg/mL)
Strain KP1086 Klebsiella pneumoniae (OXA-48, CTX-M-15, TEM, SHV)
  MIC: Z (MIC of greater than 10 μg/mL)
Strain KP1087 Klebsiella pneumoniae (KPC-2, CTX-M-15, SHV-11, TEM-1)
  MIC: Z (MIC of greater than 10 μg/mL)
Strain KP1088 Klebsiella pneumoniae (KPC-3, SHV-11, TEM-1)
  MIC: Z (MIC of greater than 10 μg/mL)
Strain KP1089 Klebsiella pneumonias (OXA-181, CTX-M-15, TEM, SHV)
  MIC: Z (MIC of greater than 10 μg/mL)
Strain KP1095 Klebsiella pneumoniae (KPC-2 TEM-1 SHV-1)
  MIC: Y (MIC of 1 μg/mL to 10 μg/mL)
Strain KP1096 Klebsiella pneumoniae (KPC-2 TEM-181 SHV-11)
  MIC: Z (MIC of greater than 10 μg/mL)
Strain KP1097 Klebsiella pneumonias (IMP-1)
  MIC: Z (MIC of greater than 10 μg/mL)
Strain KP1098 Klebsiella pneumoniae (IMP-26)
  MIC: Z (MIC of greater than 10 μg/mL)
Strain KP1104 Klebsiella pneumoniae (KPC TEM)
  MIC: Z (MIC of greater than 10 μg/mL)
Strain KP1105 Klebsiella pneumoniae (KPC TEM SHV)
  MIC: Z (MIC of greater than 10 μg/mL)
Strain KP1159 Klebsiella pneumoniae (SHV-1(2b); CTX-M-15; IMP-4)
  MIC: Z (MIC of greater than 10 μg/mL)
Strain KP1160 Klebsiella pneumoniae (SHV-28(2be); CTX-M-15; IMP-26)
  MIC: Z (MIC of greater than 10 μg/mL)
Strain KP1161 Klebsiella pneumoniae (NDM-1)
  MIC: Z (MIC of greater than 10 μg/mL)
Strain KP1164 Klebsiella pneumoniae (SHV-12(2be); VIM-1)
  MIC: Z (MIC of greater than 10 μg/mL)
Strain KP1165 Klebsiella pneumoniae (SHV-11(2b); CTX-M-15; VIM-27)
  MIC: Z (MIC of greater than 10 μg/mL)
Strain KP1166 Klebsiella pneumoniae (SHV-5(2be); VIM-26)
  MIC: Z (MIC of greater than 10 μg/mL)
Strain KP1167 Klebsiella pneumoniae (SHV-12(2be); VIM-1)
  MIC: Y (MIC of 1 μg/mL to 10 μg/mL)
Strain KP1169 Klebsiella pneumoniae (SHV-11(2b); VIM-1)
  MIC: Y (MIC of 1 μg/mL to 10 μg/mL)
Strain KP1170 Klebsiella pneumoniae (SHV-11(2b); CTX-M-15; NDM-1)
  MIC: Z (MIC of greater than 10 μg/mL)
Strain KP1172 Klebsiella pneumoniae (SHV-31(2be); DHA-1; VIM-1)
  MIC: Y (MIC of 1 μg/mL to 10 μg/mL)
Strain KP1173 Klebsiella pneumoniae (TEM-33(2br); CTX-M-15; IMP-1)
  MIC: Y (MIC of 1 μg/mL to 10 μg/mL)
Strain KP1174 Klebsiella pneumoniae (CTX-M-14; IMP-1)
  MIC: Z (MIC of greater than 10 μg/mL)
Strain KP1175 Klebsiella pneumoniae (SHV-OSBL(2b); VIM-1)
  MIC: Z (MIC of greater than 10 μg/mL)
Strain KP1177 Klebsiella pneumoniae (SHV-OSBL(2b), TEM-OSBL(2b); CTX-M-15; NDM-1)
  MIC: Z (MIC of greater than 10 μg/mL)
Strain KP1178 Klebsiella pneumoniae (SHV-OSBL(2b;) TEM-OSBL(2b); CTX-M-15; NDM-1)
  MIC: Z (MIC of greater than 10 μg/mL)
Strain KP1179 Klebsiella pneumoniae (SHV-12(2be), TEM-OSBL(2b); CTX-M-15; NDM-7)
  MIC: Z (MIC of greater than 10 μg/mL)
Strain KP1180 Klebsiella pneumoniae (SHV-OSBL(2b), TEM-OSBL(2b); CTX-M-15; DHA-1; IMP-26)
  MIC: Y (MIC of 1 μg/mL to 10 μg/mL)
Strain KP1181 Klebsiella pneumoniae (SHV-OSBL(2b); CTX-M-15; IMP-26)
  MIC: Y (MIC of 1 μg/mL to 10 μg/mL)
Strain KP1183 Klebsiella pneumoniae (SHV-OSBL(2b), TEM-OSBL(2b); CTX-M-15; NDM-1)
  MIC: Z (MIC of greater than 10 μg/mL)
Strain KP1184 Klebsiella pneumoniae (SHV-OSBL(2b); IMP-1)
  MIC: Y (MIC of 1 μg/mL to 10 μg/mL)
Strain KP1185 Klebsiella pneumoniae (SHV-OSBL(2b), TEM-OSBL(2b); IMP-4)
  MIC: Z (MIC of greater than 10 μg/mL)
Strain KP1186 Klebsiella pneumoniae (CTX-M-15; NDM-1)
  MIC: Z (MIC of greater than 10 μg/mL)
Strain KP1187 Klebsiella pneumoniae (SHV-55(2be), TEM-OSBL(2b); CTX-M-15; NDM-1)
  MIC: Z (MIC of greater than 10 μg/mL)
Strain KP1188 Klebsiella pneumoniae (SHV-OSBL(2b); CTX-M-15; NDM-1)
  MIC: Z (MIC of greater than 10 μg/mL)
Strain KP1189 Klebsiella pneumoniae (TEM-OSBL(2b); CTX-M-15; CTX-M-27; NDM-1)
  MIC: Z (MIC of greater than 10 μg/mL)
Strain KPM1123 Klebsiella pneumoniae (KPC-2 TEM SHV)
  MIC: Z (MIC of greater than 10 μg/mL)
Strain KPM1202 Klebsiella pneumoniae (KPC SHV TEM)
  MIC: Z (MIC of greater than 10 μg/mL)
Strain KPM1203 Klebsiella pneumoniae (KPC SHV TEM)
  MIC: Y (MIC of 1 μg/mL to 10 μg/mL)
Strain KPM1344 Klebsiella pneumoniae (VIM-1)
  MIC: Y (MIC of 1 μg/mL to 10 μg/mL)
Strain KPM1345 Klebsiella pneumoniae (VIM-1 SHV)
  MIC: Y (MIC of 1 μg/mL to 10 μg/mL)
Strain KPM1347 Klebsiella pneumoniae (NDM-1 SHV CTX-M-15)
  MIC: Z (MIC of greater than 10 μg/mL)
Strain KX1017 Klebsiella oxytoca (KPC-2, OXA-2, SHV-30)
  MIC: Z (MIC of greater than 10 μg/mL)
Strain KX1018 Klebsiella oxytoca (KPC-2, SHV-40, OXY-1)
  MIC: Y (MIC of 1 μg/mL to 10 μg/mL)
Strain KX1019 Klebsiella oxytoca (KPC-2, OXA-2)
  MIC: Z (MIC of greater than 10 μg/mL)
Strain PM1024 Proteus mirabilis (TEM-1(2b); CMY-16; VIM-1)
  MIC: Y (MIC of 1 μg/mL to 10 μg/mL)
Strain PM1026 Proteus mirabilis (DHA-1; IMP-26)
  MIC: Y (MIC of 1 μg/mL to 10 μg/mL)
Strain PM1027 Proteus mirabilis (VIM-5)
  MIC: Z (MIC of greater than 10 μg/mL)
Strain SM1023 Serratia marcescens (VIM-4)
  MIC: Z (MIC of greater than 10 μg/mL)
